Experimental data reported in US6379659B1, “Keratin fiber strengthening agent and method for strengthening keratin fiber” (Takasago International Corporation, priority 1997, dated 2002).

Assays:
[1] = Breaking strength test on solvent-damaged human hair (Example 31); details: damaged (chloroform/ethanol-treated) hair of person soaked in treating agent; 25° C., 40% RH; average n = 10
Method: Hair samples 1 to 5 were prepared and subjected to a destructive test under the following conditions by the use of Shimadzu Autograph AGS-500B (manufactured by Shimadzu Corp.) to measure a breaking strength.
Hair: A hair having a length of about 15 cm and a diameter of about 0.08 to 0.1 mm, clamped 5.7 cm from each end.
(§1) Pulling speed: 5.0 cm/min
(§2) Atmosphere: 25° C., 40% RH
(§3) Healthy hair, cut off from a person at a beauty parlor, which had not been permed nor bleached, was used.
The healthy hair (untreated hair, sample 1) weighing 50 g was soaked in 450 ml of a 2:1 (by volume) mixture of chloroform and ethanol and subjected to ultrasonication for 15 minutes to remove lipids. The sample was washed with 250 ml of a 2:1 (by volume) mixture of chloroform and ethanol and then with 100 ml of acetone and dried to prepare solvent-treated hair as damaged hair (sample 2).
The solvent-treated hair weighing 40 g was soaked in a 5-fold weight of each of the blank treating agent of Comparative Example 1, the racemate-containing treating agent of Comparative Example 2, and the keratin fiber strengthening agent of Example 1 and subjected to ultrasonication for 15 minutes, followed by washing with five 1000 ml portions of water. The treated hair was dried under reduced pressure at 60° C. 2 hours and then under reduced pressure for 3 hours to prepare samples 3 to 5, respectively.

[2] = Young's modulus, breaking strength, elongation and toughness of solvent-damaged human hair (Examples 33, 35); details: damaged hair of person soaked in treating agent; n=10
Method: as §3
Healthy hair (untreated hair, sample 6) was treated with a chloroform-ethanol mixed solvent in the same manner as in Example 31 to prepare sample 7. Samples 8 to 10 were prepared in the same manner as for samples 3 to 5 of Example 31. The breaking strength of each sample was measured by means of Shimadzu Autograph. A Young's modulus was also measured.

[3] = Breaking strength test on dog hair (Example 36)
Method: Dog hair samples 11 to 15 were prepared as follows and subjected to a destructive test under the following conditions by the use of Shimadzu Autograph AGS-SOOB (manufactured by Shimadzu Corp.) to measure a breaking strength and a Young's modulus. The breaking strength and Young's modulus data obtained are also graphically represented in FIGS. 4 and 5, respectively.
Dog Hair: A dog hair having a length of about 10 to 15 cm and a diameter of about 0.08 to 0.1 mm, clamped 2 cm from each end.
as §1, §2
Healthy dog hairs collected from around the neck of a 4-year-old male Shetland sheepdog were used. The untreated hair as collected (sample 11) weighing 50 g was treated in the same manner as in Example 31 to prepare samples 12 to 15.

[4] = Breaking strength test, elongation and toughness of solvent-damaged human hair (Example 38)
Method: Samples (Samples 16 to 19) were prepared as described below and breaking strength test and measurement of elongation were carried out under the below-described measuring conditions by using Shimadzu Autograph AGS0599B (manufactured by Simadzu Corp). Based on the results, toughness (breaking strength×elongation) of each of Samples 16 to 19 was calculated.
Relative humidity: 40%, temperature: 25° C.
Hair employed for the test: A hair having a length of about 15 cm and a diameter of about 0.08 to 0.1 mm, clamped 5.0 cm from each end.
as §1
(b) Preparation of Samples (Samples 16 to 19)
as §3
The healthy hair (untreated hair, Sample 16) weighing 50 g was soaked in 450 ml of a 2:1 mixture of chloroform and ethanol and subjected to ultrasonication for 15 minutes to remove lipid components. The sample was then washed with 250 ml of a 2:1 mixture of chloroform and ethanol and then with 100 ml of acetone, followed by drying under reduced pressure, whereby organic-solvent-treated hair (Sample 17) was obtained.
The solvent-treated hair (Sample 17) weighing 40 g was soaked in a 5-fold weight of each of the treating agents and subjected to ultrasonication for 15 minutes. The hair was then washed five times with 1000 ml of water, followed by drying at 60° C. for 2 hours under reduced pressure and then drying for 3 hours under reduced pressure, whereby each of Samples 18 to 19 were obtained. Described specifically, Sample 18 was the hair treated with the treating agent (placebo treating agent), which had been prepared in Comparative Example 3, subsequent to the treatment with a solvent, while Sample 19 was the hair treated with the keratin fiber strengthening agent of the present invention (Compound-6-containing treating agent) which had been prepared in […].
The differences of the samples are summarized as follows.
Sample 16: Healthy hair (untreated)
Sample 17: Hair treated with the solvent
Sample 18: Hair treated with the solvent and then with the placebo treating agent prepared in Comparative Example
Sample 19: Hair treated with the solvent and then with the keratin fiber strengthening agent of the present invention (Compound-6-containing treating agent) prepared in Example 31

[5] = damaged dog hair soaked in treating agent, n = 10
[6] = solvent-treated hair of person soaked in treating agent, mean n=10

SMILES	Breaking Strength [1]	Breaking Strength [2]	Elongation [2]	Toughness (product of breaking strength and elongation) [2]	Breaking Strength per area ([3]; damaged dog hair soaked in treating agent)	Breaking Strength [3, 5]	Young's Modulus [3, 5]	Improvements on breaking strength and Young's modulus, in words ([3]; not only human hair but dog hair)	Breaking strength of hair as compared with the placebo treating agent, in words ([4]; P<0.05 vs Sample 18)	Breaking Strength [4, 6]	Elongation [4, 6]	Toughness (breaking strength×elongation) [4, 6]
CCCCCCCCCCCCCCCCCC(=O)N[C@@H](CO)[C@H](O)CCCCCCCCCCCCCCC [Compound 1, (2S,3R)-2-octadecanoylaminooctadecane-1,3-diol]	0.2058 kgf	0.2941 kgf	27.08 mm	7.9642 kgf × mm	42.55 kgf/mm^2	0.1196 kgf	605.240 kgf/mm^2	significant improvements				
CCCCCCCCCCCCCCC[C@@H](O)[C@H](CO)NC(=O)C(O)CCCCCCCCCCCCCC (stereo partly drawn) [Compound 6, (2S,3R)-2-(2-hydroxyhexadecanoyl)aminooctadecane-1,3-diol]									significantly increases	0.266 Kgf	26.02 mm	6.921 kgf·mm
